Experimental data from EP0897904B1, “Fungicidal 2-methoxybenzophenones” (BASF AKTIENGESELLSCHAFT, priority 1997, dated 1999).
Where two headings read alike, the source gives them in different places.

Key:
[1] = test system: Erysiphe cichoracearum DC; test: Curative and residual control test, Cucumber Powdery Mildew (QPM); format: in vivo; settings: Golovinomyces cichoracearum, 72 h, read-out: Disease control (% efficacy); for Emax at 12.5 ppm: QPM 3 da R (3 day residual), 12,5 ppm; for Emax at 125 ppm / Emax at 1250 ppm: QPM 3 da R (3 day residual)
From the text: • (a) Wheat Powdery Mildew (WPM): HOST: Wheat (Triticum aestivum L.) variety Kanzler PATHOGEN: Blumeria (Erysiphe) graminis DC. f.sp. tritici E. Marchal • (b) Cucumber Powdery Mildew (QPM): HOST: Cucumber (Cucumis sativus L.) variety Bush pickle PATHOGEN: Erysiphe cichoracearum DC
This test procedure is for curative and residual control of powdery mildew diseases. • 1. Wheat seed (approximately 8-10/pot) or cucumber seed (1 seed / pot) is planted in 6 cm diameter plastic pots and maintained in the greenhouse. • 2. When the primary leaf (wheat) or the cotyledons (cucumber) is/are fully expanded, formulated test compounds are sprayed with a single nozzle overhead track sprayer at a rate of 200 l/ha. Plants are then allowed to air-dry. • 3. Inoculation precedes treatment by 2 or 3 days in the case of curative evaluations and follows treatment by 3 or 4 days in case of residual evaluations. For inoculation, plants are set up on greenhouse benches with bottom watering mats and inoculated by dusting them with conidia from powdery mildew infected plants (stock cultures at an age of 10-14 days). Between inoculation and treatment for curative evaluations and between treatment and inoculation for residual evaluations, plants are maintained in the greenhouse with bottom watering. • 4. Disease on the primary leaf (wheat) or on the cotyledons (cucumber) as percent leaf area with disease symptoms/signs is evaluated about 7 days after inoculation. In the case of wheat, the tips and bases of the leaves are excluded from the evaluation. Percent disease control is then calculated by the following formula: % disease control = 100 -(% infection in treated plants)/(% infection in untreated plants)x 100 [formula]
(§1) • 1. Technical compounds are formulated in a solvent/surfactant system consisting of 5% acetone and 0.05% Tween 20 in deionized water. Compounds are dissolved in acetone prior to addition of the water; the Tween 20 can be added through either the acetone or the water. Dilutions are made using the solvent/surfactant system. Formulated compounds are prepared using deionized water. • 2. Two kinds of controls are included: • Plants treated with the solvent/surfactant solution and inoculated (Solvent Blank). • Untreated plants which are inoculated (Inoculated Control).

[2] = test system: Blumeria (Erysiphe) graminis DC. f.sp. tritici E. Marchal; test: Zero day protectant test, Wheat Powdery Mildew (WPM); format: in vivo; settings: wheat variety Kanzler, 0 day protectant test, side-by-side, technical material in 0.5% acetone 0.05% Tween 20 water
From the text: • (a) Wheat Powdery Mildew (WPM): HOST: Wheat (Triticum aestivum L.) variety Kanzler PATHOGEN: Blumeria (Erysiphe) graminis DC. f.sp. tritici E. Marchal • (b) Barley Powdery Mildew (BPM): HOST: Barley (Hordeum vulgare L.) variety Golden Promise PATHOGEN: Blumeria (Erysiphe) graminis DC. f.sp. hordei E. Marchal
This test is a zero day protectant test for control of wheat and barley powdery mildews. • 1. Wheat or barley seed (approximately 8-10/pot) is planted in 6 cm diameter plastic pots and maintained in the greenhouse. • 2. When the primary leaf is fully expanded, formulated test compounds are sprayed with a single nozzle overhead track sprayer at a rate of 200 l/ha. Plants are then allowed to air-dry. • 3. Inoculation follows about three hours after compound application. Plants are set up on greenhouse benches with bottom watering mats and inoculated by dusting them with conidia from powdery mildew infected plants (stock cultures at an age of 10-14 days). • 4. Disease on the primary leaf as percent leaf area with disease symptoms/signs is evaluated about 7 days after inoculation. The tips and bases of the leaves are excluded from the evaluation. Percent disease control is then calculated by the following formula: % disease control = 100 -(% infection in treated plants)/(% infection in untreated plants)x 100 [formula]
as §1, with “system. Test compounds are typically tested over a range of concentrations covering several orders of magnitude and then ED values are calculated for comparison of compounds.” for “system.”
Compounds applied as technical material formulated in 0.5% acetone 0.05% Tween 20 water

COc1cc(C)c(C(=O)c2c(C)cccc2OC)c(OC)c1OC [Example 1, 6,6'-dimethyl-2,2',3',4'-tetramethoxy-benzophenone]
Emax at 12.5 ppm ([1]; Test A): 2%
Emax at 12.5 ppm ([1]; Test B): 3%
Emax at 125 ppm ([1]; Test A): 5%
Emax at 125 ppm ([1]; Test B): 61%
Emax at 1250 ppm ([1]; Test A): 100%
Emax at 1250 ppm ([1]; Test B): 100%
ED90 (ppm) [2]: 4 ppm
